Measured values from patent publication US20050214285A1, “Epitopes or mimotopes derived from the C-epsilon-3 or C-epsilon-4 domains of IgE, antagonists thereof, and their therapeutic uses” (SmithKline Beecham Biologicals, s.a. and Peptide …, priority 1999, published 2005).
Positions of bridges follow the written chain, without caps; N, C: chain ends. No end group written: not given here.

Legend:
PTmAb0011 [1] = assay: BIAcore affinity to PTmAb0011; assay type: binding, mouse
Description: (§1) This involved a DNA sub-cloning transfer from the major coat protein (gVIIIp) filamentous phage display vector to a lower copy number minor phage coat protein (gIIIp) display vector with a random PCR step. […] Included in the tables are ranking orders and also BIAcore affinities where available.
(§2) Thus indicating the importance of correct presentation of the peptides of the present invention to adopt a shape which closely resembles the native target in the context of the whole IgE molecule. [drawing]

PTmAb0005 = assay: BIAcore affinity to PTmAb0005; assay type: binding
Description: as §1, §2

PTmAb0011 [2] = assay: Phage display ranking of peptide ligands for PTmAb0011; assay type: binding, mouse; settings: primary phage display biopannings (Table 7)
Description: Phage display libraries were used to map the binding sites of the monoclonal antibodies using three different phage libraries, displaying either the XCX15, XCX10 or XAX10 peptide sequence (where X is any amino acid) at the N-terminus of the phage gVIIIp. Tables 6 and 7 show the results of selecting for peptide ligands with the anti human IgE monoclonal antibodies […]. […]
as §1

| Sequence | Rank (ECL) PTmAb0011 (PTmAb0011 [2]) | further results |
| --- | --- | --- |
| CLEDGQVMDVDCPREAAEGDK (disulfide 1-12 (inferred)) [PT1078, P1 mimotope] | – | binding of the peptide to PTmAb0011 compared with PT1079 (PTmAb0011 [1]): reduced the binding; binding of the peptide to PTmAb0005 compared with PT1079 (PTmAb0005): reduced the binding |
| GCPMWPQPDDEC [EED132] | 28 | – |
| GCPTWPRVGDHC [EED36] | 52 | – |
| GCQVGELVWCRE [EED134] | 14 | – |
| HCEEPEYSPATRVFCGR [EEC51/48/53] | 75 | – |
| HCQQVFFPQDYLWCQRG [EEC36] | 158 | – |
| KCPTYPKPNDRCLWPVP [EEC135] | 19 | – |
| MCQGWEIVSECW [EED57] | 0 | – |
| NCNDNPMLDCMPAWSS [EEC5] | 0 | – |
| NCQDQMLREDAGCWSKI [EEC40A] | 80 | – |
| QCVRDGTRKVCM [EED33] | 7 | – |
| RCDQQLPRDSYTFCMMS [EEC115/3/48] | 438 | – |
| RCEQGALRCVGE [EED41/56] | 0 | – |
| RCQSARVVPECW [EED131/138/102] | 32 | – |
| SCAPSGDCGYKG [EED18/47/48] | 31 | – |
| SCQGREVRRECW [EED183] | 596 | – |
| TCGQSELRCASLETHHV [EEC55] | 0 | – |
| TCLVDRQESDVC [EED50] | 6 | – |
| VCDECVSRELAL [EED35/53/164] | 330 | – |
| VCDECVSRELAL [EED35/153/164] | 118 | – |
| VCPPGWKNLGCN [EED51] | 0 | – |
| WCLEPECAPGLL [EED38] | 330 | – |
| YCPKYPLEGDCLLDNDY [EEC116] | 4 | – |
